In US4159263A, “(D-Ala^5)-somatostatin and analogues thereof” (American Home Products Corporation, priority 1977, dated 1979):
Positions of bridges follow the written chain, without caps; N, C: chain ends. Non-standard residues stand in square brackets, D forms with d. Residues, ends and D or L forms follow the SMILES beside them.

Assays:
[1] = system: glucagon; experiment: Arginine-stimulated glucagon secretion in Nembutal-anesthetized rats, radioimmunoassay of blood; settings: for Glucagon: albino male rats, subcutaneous
Procedure: Albino male rats were administered Nembutal intraperitoneally at a dose of 50 milligrams per kilogram. Fifteen minutes later a subcutaneous injection of the test compound or physiological saline was administered. Ten minutes later 0.5 milliliters of arginine (300 milligrams per milliliter, pH 7.2) is injected into the heart. Five minutes after receipt of the arginine the rats are decapitated and blood is collected into trasylol-EDTA. An appropriate aliquot was assayed for growth hormone, insulin and glucagon by radioimmunoassay.

[2] = system: insulin; experiment: Arginine-stimulated insulin secretion in Nembutal-anesthetized rats, radioimmunoassay of blood; type: in vivo; settings: for Insulin: albino male rats, subcutaneous
Text: (§1) The results of the assay are as follows:

[3] = system: growth hormone; experiment: Arginine-stimulated growth hormone secretion in Nembutal-anesthetized rats, radioimmunoassay of blood; type: in vivo; settings: for GH: albino male rats, subcutaneous
Text: as §1

C[C@H](N)C(=O)NCC(=O)N[C@H]1CSSC[C@@H](C(=O)O)NC(=O)[C@H](CO)NC(=O)[C@H]([C@@H](C)O)NC(=O)[C@H](Cc2ccccc2)NC(=O)[C@H]([C@@H](C)O)NC(=O)[C@H](CCCCN)NC(=O)[C@@H](Cc2c[nH]c3ccccc23)NC(=O)[C@H](Cc2ccccc2)NC(=O)[C@H](Cc2ccccc2)NC(=O)[C@@H](C)NC(=O)[C@H](CCCCN)NC1=O [L-Alanylglycyl-L-cysteinyl-L-lysyl-D-alanyl-L-phenylalanyl-L-phenylalanyl-D-tryptophyl-L-lysyl-L-threonyl-L-phenylalanyl-L-threonyl-L-seryl-L-cysteinecyclic (3→14)-disulfide, triacetate] (H-AGCK[dA]FF[dW]KTFTSC-OH; disulfide 3-14)
Glucagon ([1]; dose 10 ug/kg, control 92 ± 23, *not significant): 78 ± 7 pg/mL | Glucagon ([1]; dose 1,000 ug/kg, control 42 ± 3): 40 ± 6 pg/mL | effect on glucagon levels (summary in words) ([1]; summary of rat results): without materially affecting glucagon levels | Insulin ([2]; dose 10 ug/kg, control 321 ± 49): 215 ± 13 μU/ml | Insulin ([2]; dose 100 ug/kg, control 339 ± 45): 68 ± 11 μU/ml | Insulin ([2]; dose 1,000 ug/kg, control 191 ± 11): 42 ± 5 μU/ml | reducing secretion of insulin (summary in words) ([2]; summary of rat results): effective agent for reducing secretion of growth hormone and insulin | GH ([3]; dose 10 ug/kg, control 254 ± 40): 53 ± 6 ng/mL | GH ([3]; dose 100 ug/kg, control 526 ± 153): 117 ± 31 ng/mL | GH ([3]; dose 1,000 ug/kg, control 312 ± 63): 34 ± 5 ng/mL | reducing secretion of growth hormone (summary in words) ([3]; summary of rat results): effective agent for reducing secretion of growth hormone
